Assay results taken from patent US20230081426A1, “COMPOUNDS AND METHODS FOR KRAS MODULATION AND INDICATIONS THEREFOR” (Plexxikon Inc., priority 2020, published 2023).

How the values were obtained:
[1] = biological target: T1, G12V-mutant human KRAS (amino acid residues 1-188) (Homo sapiens, UniProt P01116, G12V); test: KRAS Binding Competition Assay (AlphaScreen; biotinylated KRpep-2d analogue), G12V; conditions: geometric mean, read-out: KRAS GMean IC50 (uM) MUTATION: G12V
T1 construct: G12V-mutant human KRAS (amino acid residues 1-188) with FLAG tag was purified from E. coli; made in house; host or cells: E. coli

[2] = biological target: T2, G12D-mutant human KRAS (amino acid residues 1-188) (Homo sapiens, UniProt P01116, G12D); test: KRAS Binding Disruption Assay (AlphaScreen; biotinylated KRpep-2d analogue or RAF1-RBD), G12D; conditions: KRAS G12D; geometric mean; read-out: KRAS GMean IC50 (uM) MUTATION: G12D
T2 construct: G12D or G12C-mutant human KRAS (amino acid residues 1-188) with FLAG tag; made in house; host or cells: E. coli
Summary of the method: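 Mutant KRAS (5-20 nM) incubated 1 h at 25° C with test compound and 5-20 nM biotinylated KRpep-2d analogue or RAF1-RBD in 20 mM HEPES pH 7.5, 100 mM NaCl, 5 mM MgCl2, 0.01% Tween-20, 0.01% BSA.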

Structure (SMILES) | IC50 [1] [µM] | IC50 [2] [µM]
O=C(O)CC(=O)N1[C@@H]2CC[C@H]1CN(c1nc(OCC34CCCN3CCC4)nc3c(F)c(-c4cc(O)cc5ccccc45)ccc13)C2 [P-0353, 3-((1R,5S)-3-(8-fluoro-7-(3-hydroxynaphthalen-1-yl)-2-((tetrahydro-1H-pyrrolizin-7a(5H)-yl)methoxy)quinazolin-4-yl)-3,8-diazabicyclo[3.2.1]octan-8-yl)-3-oxopropanoic acid] | 0.0001 to 10 | 0.0001 to 10
CN(C)c1ccc(/C=C/c2nc(N3C[C@H]4CC[C@@H](C3)N4)c3cc(Cl)c(-c4c(O)cccc4F)c(F)c3n2)cc1 [P-0355, 2-(4-((1R,5S)-3,8-diazabicyclo[3.2.1]octan-3-yl)-6-chloro-2-((E)-4-(dimethylamino)styryl)-8-fluoroquinazolin-7-yl)-3-fluorophenol] | 0.0001 to 10 | 0.0001 to 10
CN1CCC[C@H]1COc1nc(N2CC3COCC(C2)N3)c2cc(Cl)c(-c3cc(O)cc4ccccc34)c(F)c2n1 [P-0357, 4-(4-(3-oxa-7,9-diazabicyclo[3.3.1]nonan-7-yl)-6-chloro-8-fluoro-2-(((S)-1-methylpyrrolidin-2-yl)methoxy)quinazolin-7-yl)naphthalen-2-ol] | 0.0001 to 10 | 0.0001 to 10
CN1CCC[C@H]1COc1nc(N2CC3COCC(C2)N3C(=O)CC2SC(=O)NC2=O)c2cc(Cl)c(-c3cc(O)cc4ccccc34)c(F)c2n1 (stereo partly drawn) [P-0358, 5-(2-(7-(6-chloro-8-fluoro-7-(3-hydroxynaphthalen-1-yl)-2-(((S)-1-methylpyrrolidin-2-yl)methoxy)quinazolin-4-yl)-3-oxa-7,9-diazabicyclo[3.3.1]nonan-9-yl)-2-oxoethyl)thiazolidine-2,4-dione] | 0.0001 to 10 | 0.0001 to 10
Cc1cccc2c1N(c1ccc3c(N4C[C@H]5CC[C@@H](C4)N5)nc(OC[C@@H]4CCCN4C)nc3c1F)CC(O)C2 (stereo partly drawn) [P-0360, 1-(4-((1R,5S)-3,8-diazabicyclo[3.2.1]octan-3-yl)-8-fluoro-2-(((S)-1-methylpyrrolidin-2-yl)methoxy)quinazolin-7-yl)-8-methyl-1,2,3,4-tetrahydroquinolin-3-ol] | 10 to 100 | 0.0001 to 10
CN(C)c1ccc(Oc2nc(N3C[C@H]4CC[C@@H](C3)N4)c3cc(Cl)c(-c4c(O)cccc4F)c(F)c3n2)cc1 [P-0361, 2-(4-((1R,5S)-3,8-diazabicyclo[3.2.1]octan-3-yl)-6-chloro-2-(4-(dimethylamino)phenoxy)-8-fluoroquinazolin-7-yl)-3-fluorophenol] | 0.0001 to 10 | 0.0001 to 10
CN(C)c1cccc(/C=C/c2nc(N3C[C@H]4CC[C@@H](C3)N4)c3cc(Cl)c(-c4c(O)cccc4F)c(F)c3n2)c1 [P-0362, 2-(4-((1R,5S)-3,8-diazabicyclo[3.2.1]octan-3-yl)-6-chloro-2-((E)-3-(dimethylamino)styryl)-8-fluoroquinazolin-7-yl)-3-fluorophenol] | 0.0001 to 10 | 0.0001 to 10
CN(C)c1cccc(CCc2nc(N3C[C@H]4CC[C@@H](C3)N4)c3cc(Cl)c(-c4c(O)cccc4F)c(F)c3n2)c1 [P-0363, 2-(4-((1R,5S)-3,8-diazabicyclo[3.2.1]octan-3-yl)-6-chloro-2-(3-(dimethylamino)phenethyl)-8-fluoroquinazolin-7-yl)-3-fluorophenol] | 0.0001 to 10 | 0.0001 to 10
CN(C)c1cccc(COc2nc(N3C[C@H]4CC[C@@H](C3)N4)c3cc(Cl)c(-c4c(O)cccc4F)c(F)c3n2)c1 [P-0364, 2-(4-((1R,5S)-3,8-diazabicyclo[3.2.1]octan-3-yl)-6-chloro-2-((3-(dimethylamino)benzyl)oxy)-8-fluoroquinazolin-7-yl)-3-fluorophenol] | 0.0001 to 10 | 0.0001 to 10
CN1CCC[C@H]1COc1nc(N2C[C@H]3CC[C@@H](C2)N3C(=O)CC#N)c2ccc(-c3cc(O)cc4ccccc34)cc2n1 [P-0368, 3-((1R,5S)-3-(7-(3-hydroxynaphthalen-1-yl)-2-(((S)-1-methylpyrrolidin-2-yl)methoxy)quinazolin-4-yl)-3,8-diazabicyclo[3.2.1]octan-8-yl)-3-oxopropanenitrile] | 0.0001 to 10 | 0.0001 to 10
CN1C(=O)C(CC(=O)N2[C@@H]3CC[C@H]2CN(c2nc(OC[C@@H]4CCCN4C)nc4cc(-c5cc(O)cc6ccccc56)ccc24)C3)N(C)C1=O (stereo partly drawn) [P-0369, 5-(2-((1R,5S)-3-(7-(3-hydroxynaphthalen-1-yl)-2-(((S)-1-methylpyrrolidin-2-yl)methoxy)quinazolin-4-yl)-3,8-diazabicyclo[3.2.1]octan-8-yl)-2-oxoethyl)-1,3-dimethylimidazolidine-2,4-dione] | 10 to 100 | 0.0001 to 10
CN1CCC[C@H]1COc1nc(N2C[C@H]3CC[C@@H](C2)N3C(=O)CC2SC(N)=NC2=O)c2ccc(-c3cc(O)cc4ccccc34)cc2n1 (stereo partly drawn) [P-0370, 2-amino-5-(2-((1R,5S)-3-(7-(3-hydroxynaphthalen-1-yl)-2-(((S)-1-methylpyrrolidin-2-yl)methoxy)quinazolin-4-yl)-3,8-diazabicyclo[3.2.1]octan-8-yl)-2-oxoethyl)thiazol-4(5H)-one] | 0.0001 to 10 | 0.0001 to 10
CN1CCC[C@H]1COc1nc(N2C[C@H]3CC[C@@H](C2)N3C(=O)CC2CCNC2=O)c2ccc(-c3cc(O)cc4ccccc34)cc2n1 (stereo partly drawn) [P-0371, 3-(2-((1R,5S)-3-(7-(3-hydroxynaphthalen-1-yl)-2-(((S)-1-methylpyrrolidin-2-yl)methoxy)quinazolin-4-yl)-3,8-diazabicyclo[3.2.1]octan-8-yl)-2-oxoethyl)pyrrolidin-2-one] | 10 to 100 | 10 to 100
Fc1cc2c(N3C[C@H]4CC[C@@H](C3)N4)nc(OCC34CCCN3CCC4)nc2c(F)c1-c1c[nH]c2ccccc12 [P-0372, 4-((1R,5S)-3,8-diazabicyclo[3.2.1]octan-3-yl)-6,8-difluoro-7-(1H-indol-3-yl)-2-((tetrahydro-1H-pyrrolizin-7a(5H)-yl)methoxy)quinazoline] | 10 to 100 | 0.0001 to 10
Fc1cc2c(N3C[C@H]4CC[C@@H](C3)N4)nc(OCC34CCCN3CCC4)nc2c(F)c1-c1c[nH]c2ccc(Cl)cc12 [P-0373, 4-((1R,5S)-3,8-diazabicyclo[3.2.1]octan-3-yl)-7-(5-chloro-1H-indol-3-yl)-6,8-difluoro-2-((tetrahydro-1H-pyrrolizin-7a(5H)-yl)methoxy)quinazoline] | 10 to 100 | 0.0001 to 10
O=C(Cc1c[nH]c(=O)[nH]c1=O)N1[C@@H]2CC[C@H]1CN(c1nc(OCC34CCCN3CCC4)nc3c(F)c(-c4cc(O)cc5ccccc45)ccc13)C2 [P-0374, 5-(2-((1R,5S)-3-(8-fluoro-7-(3-hydroxynaphthalen-1-yl)-2-((tetrahydro-1H-pyrrolizin-7a(5H)-yl)methoxy)quinazolin-4-yl)-3,8-diazabicyclo[3.2.1]octan-8-yl)-2-oxoethyl)pyrimidine-2,4(1H,3H)-dione] | 0.0001 to 10 | 0.0001 to 10
CN1CC[C@@H](NS(=O)(=O)N2[C@@H]3CC[C@H]2CN(c2nc(OC[C@@H]4CCCN4C)nc4c(F)c(-c5cc(O)cc6ccccc56)ccc24)C3)C1 [P-0376, (1R,5S)-3-(8-fluoro-7-(3-hydroxynaphthalen-1-yl)-2-(((S)-1-methylpyrrolidin-2-yl)methoxy)quinazolin-4-yl)-N-((R)-1-methylpyrrolidin-3-yl)-3,8-diazabicyclo[3.2.1]octane-8-sulfonamide] | 0.0001 to 10 | 0.0001 to 10
CN1CCC[C@H]1COc1nc(N2C[C@H]3CC[C@@H](C2)N3S(=O)(=O)N2CCOC2=O)c2ccc(-c3cc(O)cc4ccccc34)c(F)c2n1 [P-0377, 3-(((1R,5S)-3-(8-fluoro-7-(3-hydroxynaphthalen-1-yl)-2-(((S)-1-methylpyrrolidin-2-yl)methoxy)quinazolin-4-yl)-3,8-diazabicyclo[3.2.1]octan-8-yl)sulfonyl)oxazolidin-2-one] | 0.0001 to 10 | 0.0001 to 10
CN1CCC[C@H]1COc1nc(N2C[C@H]3CC[C@@H](C2)N3)c2ccc(-c3nc(N)cc4ccccc34)c(F)c2n1 [P-0378, 1-(4-((1R,5S)-3,8-diazabicyclo[3.2.1]octan-3-yl)-8-fluoro-2-(((S)-1-methylpyrrolidin-2-yl)methoxy)quinazolin-7-yl)isoquinolin-3-amine] | 10 to 100 | 0.0001 to 10
CN1CCC[C@H]1COc1nc(N2C[C@H]3CC[C@@H](C2)N3)c2ccc(-c3nc(N)cc4cccnc34)c(F)c2n1 [P-0379, 8-(4-((1R,5S)-3,8-diazabicyclo[3.2.1]octan-3-yl)-8-fluoro-2-(((S)-1-methylpyrrolidin-2-yl)methoxy)quinazolin-7-yl)-1,7-naphthyridin-6-amine] | 100 to 1000 | 10 to 100
CN(C)CCCS(=O)(=O)N1[C@@H]2CC[C@H]1CN(c1nc(OC[C@@H]3CCCN3C)nc3c(F)c(-c4cc(O)cc5ccccc45)ccc13)C2 [P-0380, 4-(4-((1R,5S)-8-((3-(dimethylamino)propyl)sulfonyl)-3,8-diazabicyclo[3.2.1]octan-3-yl)-8-fluoro-2-(((S)-1-methylpyrrolidin-2-yl)methoxy)quinazolin-7-yl)naphthalen-2-ol] | 10 to 100 | 0.0001 to 10
Oc1cc(-c2ccc3c(N4C[C@H]5CC[C@@H](C4)N5)nc(N4CC5CCC(C4)N5)nc3c2F)c2ccccc2c1 [P-0381, 4-(4-((1R,5S)-3,8-diazabicyclo[3.2.1]octan-3-yl)-2-(3,8-diazabicyclo[3.2.1]octan-3-yl)-8-fluoroquinazolin-7-yl)naphthalen-2-ol] | 100 to 1000 | 0.0001 to 10
